# In US20240216338A1, “NEW FORMULATIONS AND USES” (ALZECURE PHARMA AB, priority 2021, published 2024):
# Read-outs that look alike come from different tables or passages of the source. Where no end group is shown, it is not given here.
# Tests used:
# mice = details: topical, WO 2018/048779; cited from earlier work
# healthy volunteers [1] = assay: VAS-Pain (post-laser pain); format: in vivo, human; details: for Mean (LEP induced VAS pain): n=24; for VAS Mean Difference: topical, difference from placebo, day 4 (AUC)
# Procedure: (§1) At Day 1, Areas 1-4 were treated with 1 ml of the Compound 1 Gel (0.05 ml/cm^2) or placebo and were tested for changes in LEP-amplitudes and Visual Analog Scale Rating of Pain (VAS-P). Assessments were performed before and after (investigational medicinal product) IMP application. At Days 2 and 3, LEPs and VAS-P assessments will also be performed before and 1 h after the second and third application of IMP at the same time as on Day 1 (±1 h). At test Day 4, LEPs and VAS-P were evaluated for areas 1-4 at 1, 6 and 9 h after the 4th IMP application.
# At the 2 h time point on Day 4, skin areas 5 and 6 will be UVR irradiated with 2 MED. LEPs, VAS-P, erythema (by skin reflection spectrometry (SRS)) and pin prick hyperalgesia (by weighted needle threshold (WNT)) were evaluated before and 1, 2, 3, 6 and 9 h after UVR. At the same time points, anti-inflammatory effects on the areas of UVR will be evaluated by SRS with the a-value being the measure of “redness”. Subjects returned on Day 5 for the 5th IMP application. One hour after IMP application and 24±1 h after UVR, LEPs and VAS-Pain were evaluated on areas 1-6. In addition, erythema (SRS) and pin prick hyperalgesia (WNT) were evaluated on areas 5 and 6. Subjects returned for a follow-up visit at Day 9 (±1).
# VAS-Pain is a subjective assessment of pain, which was used for all skin conditions. Electronic nociceptive scoring with electronic 100-mm visual analog scales (VASs) for post-laser pain (VAS-P) was assessed on a tablet PC, which allowed the subject to discriminate pain severity between no pain and strong pain using a 0 to 100 mm scale. The measurements were taken after each laser session—summarizing the overall impression of the “painfulness” of the whole session.
# The statistical analysis was based on the evaluation of treatment related differences at the individual time points and comparison of the AUC (Area Under the Curve) parameter derived from the efficacy endpoints.
# The timepoints to be included in the calculation of the AUC depended on the objective. • 1. For evaluating objective a) and b) (treatment areas 1-4), two AUC calculations were used • a. All evaluations at 1 h after IMP application at Days 1-5, the assessment at predose on Day 1 served as reference. • b. Evaluations at all timepoints at Day 4 and before IMP application on Day 5 • 2. For evaluating objective c) and d) all timepoints at Day 4 and the assessments before IMP application on Day 5 will be included in the calculation of the AUC related to treatment areas (treatment area 5 and 6).
# Those parameters were analysed using a linear mixed regression model. The regression included the classification variable treatment (A1, A2, B1 and B2 resp. A3 and B3) and the corresponding baseline value (pre dose measurement on normal skin) as fixed effects and the intercept over the subjects as a random effect.
# All treatment differences with 95% confidence intervals were estimated from this model. The null-hypotheses that these differences are equal to zero (no difference between active treatments and placebo) were tested at the 5% level against the two-sided alternatives.
# Data used from study described in Example 2 for calculating Cohen's D were taken at the 1, 6 and 9 hour time points on day 4 of the study and are shown in the table below. The standard deviation (SD) was derived from the standard error (SE) taking into account the sample size of n=24.
# healthy volunteers [2] = details: for Cohen's d, VAS (0-5 min): Capsaicin, 95 mg oral vs placebo
# [3] = oral medication; Quiding et al. PAIN 154 (2013); cited from earlier work
# healthy volunteers [4] = assay: Laser algesimetry, laser evoked potentials (LEP), N2-P2 Peak-to-Peak amplitude; format: in vivo, human; details: for PtP Mean Difference: topical, difference from placebo, day 4 (AUC)
# Procedure: Healthy volunteers were screened for eligibility from Day −28 to Day −2 before first treatment. During screening also, a training session (without study medication) was performed in order to introduce subjects to the testing and rating procedures. Prior to testing the laser evoked potentials (LEPs) from healthy skin, the individual Laser Pain Threshold (LPT) was be determined for each volunteer.
# as §1
# At the 2 h time point on Day 4, skin areas 5 and 6 will be UVR irradiated with 2 MED. LEPs, VAS-P, erythema (by skin reflection spectrometry (SRS)) and pin prick hyperalgesia (by weighted needle threshold (WNT)) were evaluated before and 1, 2, 3, 6 and 9 h after UVR. At the same time points, anti-inflammatory effects on the areas of UVR will be evaluated by SRS with the a-value being the measure of “redness”. […] One hour after IMP application and 24±1 h after UVR, LEPs and VAS-Pain were evaluated on areas 1-6. In addition, erythema (SRS) and pin prick hyperalgesia (WNT) were evaluated on areas 5 and 6. […]
# Laser algesimetry is an experimental induction of pain by means of a contact-free thermo-nociceptive laser beam with a constant short duration (ms) and individually adjusted intensity above the pain threshold (determined at Screening). Objective and quantitative measurement of nociception is accomplished by the analysis of the contingent vertex EEG event-related potentials (somatosensory/radiant heat ERPs).
# The study effects of the study medications (the Compound 1 Gel and placebo) were measured as a reduction in the PtP amplitude. […]
# [5] = test system: patients undergoing surgical removal of a mandibular third molar; assay: Molar extraction study (legacy), oral AZD1386, pain intensity VAS; format: in vivo, human; details: 95 mg oral vs placebo
# Procedure: This was a single dose, randomised, double-blind, double dummy, placebo- and Naproxen controlled study to investigate the analgesic efficacy of AZD1386 95 mg in patients undergoing surgical removal of a partially or completely impacted mandibular third molar, where bone removal was judged to be needed. Naproxen 500 mg was included as a treatment arm, for assay sensitivity only.
# Patients requesting pain relief, due to pain from the dental surgical area, within 6 hours after the end of the administration of the local anaesthetic (last anaesthetic dose) were randomised to 1 of 3 treatment arms: 40 patients received AZD1386 95 mg oral solution and Naproxen placebo capsule, 40 patients received AZD1386 placebo oral solution and Naproxen placebo capsule and 23 patients received AZD1386 placebo oral solution and Naproxen 500 mg (for assay sensitivity only). A visual Analogue Scale (VAS) was used for the assessment of pain intensity and pain on jaw movement. The VAS consists of an ungraduated 100 mm horizontal line with the left end (0 mm) marked “No pain” and the right end (100 mm) marked “Worst pain imaginable”. The patient indicated his/her present pain intensity and pain on jaw movement by drawing a vertical line across the scale on paper CRF pages. The pain intensity was rated by the patients immediately prior to administration of the investigational product, and subsequent assessments were performed at 15 min, 30 min, 45 min, 1 h, 1 h15 min, 1 h30 min, 1 h45 min, 2 h, 2 h30 min, 3 h, 4 h, 5 h, 6 h, 7 h, and 8 h after the start of administration of the investigational product.
# healthy volunteers [6] = assay: tolerability in the clinical study; details: normal skin, skin with a compromised barrier function and inflamed skin
# healthy volunteers [7] = details: difference from placebo, cited from earlier work
# healthy volunteers [8] = details: difference from placebo, cited from earlier work; remark: listed apart in the source
# [9] = Duloxetin 60 mg (oral), Schaffler et al. (2017)
# [10] = Etoricoxib 90 mg (oral), Schaffler et al. (2013)
# [11] = Lacosamide 60 mg (oral), Schaffler et al. (2017)
# [12] = Pregabalin 150 mg (oral), Schaffler et al. (2017)
# [13] = Tramadol 100 mg (oral), Schaffler et al. (2013)
compound,measurement,setting,value
CC(C)(C)c1ccc(/C=C/C(=O)Nc2ccc3c(c2)OCCO3)cc1 [AMG9810],capsaicin-induced wound licking,mice,reduced
C[C@H](NC(=O)Cn1cnc2ccc(F)c(F)c21)c1ccc(C(C)(C)C)cc1 [Compound 1],Mean (LEP induced VAS pain),"healthy volunteers [1]; Day 4, 1 h, Normal skin",32.63 mm
same,Mean (LEP induced VAS pain),"healthy volunteers [1]; Day 4, 1 h, Optimized skin",22.56 mm
same,Mean (LEP induced VAS pain),"healthy volunteers [1]; Day 4, 6 h, Normal skin",32.41 mm
same,Mean (LEP induced VAS pain),"healthy volunteers [1]; Day 4, 6 h, Optimized skin",28.01 mm
same,Mean (LEP induced VAS pain),"healthy volunteers [1]; Day 4, 9 h, Normal skin",35.64 mm
same,Mean (LEP induced VAS pain),"healthy volunteers [1]; Day 4, 9 h, Optimized skin",32.27 mm
same,VAS Mean Difference,healthy volunteers [1]; normal skin,13.2 mm
same,VAS Mean Difference,healthy volunteers [1]; optimised skin,18.7 mm
same,"Cohen's d, VAS (0-5 min)",healthy volunteers [2]; 01:08 h after IMP,0.04
same,"Cohen's d, VAS (0-5 min)","healthy volunteers [2]; 01:38 h after IMP, listed as AZD1386",0.3
same,"Cohen's d, VAS (0-5 min)",healthy volunteers [2]; 02:38 h after IMP,0.06
same,"Cohen's d, VAS (0-5 min)",healthy volunteers [2]; 03:38 h after IMP,0.22
same,"Cohen's d, VAS (0-5 min)",healthy volunteers [2]; 05:08 h after IMP,0.15
same,time of significant analgesic effects after oral administration,"healthy volunteers [2]; oral, consistent across the two legacy studies",1 to 1.5 h
same,liver enzymes,[3],elevations in liver enzymes
same,PtP Mean Difference,healthy volunteers [4]; normal skin,6.8 μV
same,analgesic effects of topical treatment,"healthy volunteers [4]; normal, optimized and UVR inflamed skin",highly superior to placebo
same,PtP Mean Difference,healthy volunteers [4]; optimised skin,9.1 μV
same,"Cohen's d, VAS (vs basel.)",[5]; 01:00 h after IMP,0.66
same,"Cohen's d, VAS (vs basel.)",[5]; 01:30 h after IMP,0.12
same,"Cohen's d, VAS (vs basel.)",[5]; 02:30 h after IMP,in favour
same,"Cohen's d, VAS (vs basel.)",[5]; 03:00 h after IMP,in favour
same,"Cohen's d, VAS (vs basel.)",[5]; 04:00 h after IMP,in favour
same,"Cohen's d, VAS (vs basel.)",[5]; 05:00 h after IMP,in favour
same,"Cohen's d, VAS (vs basel.)",[5]; 06:00 h after IMP,in favour
same,tolerability,healthy volunteers [6],well tolerated
CNCC[C@H](Oc1cccc2ccccc12)c1cccs1 [Duloxetin],PtP Mean Difference,healthy volunteers [7]; [9],1.7 μV
same,VAS Mean Difference,healthy volunteers [8]; [9],2.2 mm
Cc1ccc(-c2ncc(Cl)cc2-c2ccc(S(C)(=O)=O)cc2)cn1 [Etoricoxib],PtP Mean Difference,healthy volunteers [7]; [10],0.2 μV
same,VAS Mean Difference,healthy volunteers [8]; [10],1.2 mm
COC[C@@H](NC(C)=O)C(=O)NCc1ccccc1 [Lacosamide],PtP Mean Difference,healthy volunteers [7]; [11],0.5 μV
same,VAS Mean Difference,healthy volunteers [8]; [11],2.1 mm
CC(C)C[C@H](CN)CC(=O)O [Pregabalin],PtP Mean Difference,healthy volunteers [7]; [12],2.7 μV
same,VAS Mean Difference,healthy volunteers [8]; [12],9.1 mm
COc1cccc(C2(O)CCCCC2CN(C)C)c1 (centres unmarked) [Tramadol],PtP Mean Difference,healthy volunteers [7]; [13],4.5 μV
same,VAS Mean Difference,healthy volunteers [8]; [13],7.1 mm
QRFSR [opiorphin],capsaicin-induced wound licking,mice,reduced
